Measured values from patent US9326985B2, “Heteroaryl pyridone and aza-pyridone amide compounds” (Genentech, Inc., priority 2013, dated 2016).

How the values were obtained:
[1] = test system: CD69 by B lymphocytes in human whole blood activated with goat F(ab')2 anti-human IgM; assay: CD69 Whole Blood Assay (CD69 Hu Blood FACS); type: cell-based; conditions: Lymphocyte, CD69 positive of CD20 positive cells
How it was run: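 Heparinized human whole blood from healthy drug-free non-smokers preincubated 30 min at 37 °C with ten-point 3-fold compound dilutions, then stimulated with goat F(ab′)2 anti-human IgM (50 μg/ml final) for 20 h. CD69 on B cells read by flow cytometry as mean fluorescence intensity.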

[2] = biological target: T1, full length human wildtype Btk (Homo sapiens, UniProt Q06187); assay: Biochemical Btk Assay (BTK LC3K)
T1 construct: V5 (C); 6xHis (C); made in house; host or cells: Sf9 insect cells (baculovirus, pFastBac)
T1 sequence (Q06187 whole entry): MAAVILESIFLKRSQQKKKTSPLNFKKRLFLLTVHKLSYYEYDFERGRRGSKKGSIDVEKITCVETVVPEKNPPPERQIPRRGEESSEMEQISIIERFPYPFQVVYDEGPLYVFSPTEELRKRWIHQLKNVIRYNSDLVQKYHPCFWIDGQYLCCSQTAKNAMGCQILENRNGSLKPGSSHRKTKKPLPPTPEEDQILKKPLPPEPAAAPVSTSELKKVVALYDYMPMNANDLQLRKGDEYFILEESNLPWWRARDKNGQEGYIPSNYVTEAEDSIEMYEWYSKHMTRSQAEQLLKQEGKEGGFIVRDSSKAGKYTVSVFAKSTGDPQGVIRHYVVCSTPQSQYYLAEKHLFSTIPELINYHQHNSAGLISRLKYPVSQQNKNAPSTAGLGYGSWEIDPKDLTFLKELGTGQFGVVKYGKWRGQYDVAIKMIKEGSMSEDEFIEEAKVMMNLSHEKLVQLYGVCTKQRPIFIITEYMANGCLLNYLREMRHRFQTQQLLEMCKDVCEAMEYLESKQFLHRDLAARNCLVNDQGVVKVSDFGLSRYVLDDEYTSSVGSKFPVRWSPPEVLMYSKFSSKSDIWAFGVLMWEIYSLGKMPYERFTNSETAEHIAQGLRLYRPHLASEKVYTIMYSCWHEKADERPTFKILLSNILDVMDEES
Procedure: A generalized procedure for a standard biochemical Btk, Kinase Assay that can be used to test Formula I compounds is as follows. A master mix minus Btk enzyme is prepared containing 1× Cell Signaling kinase buffer (25 mM Tris-HCl, pH 7.5, 5 mM beta-glycerophosphate, 2 mM dithiothreitol, 0.1 mM Na3VO4, 10 mM MgCl2), 0.5 μM Promega PTK Biotinylated peptide substrate 2, and 0.01% BSA. A master mix plus Btk enzyme is prepared containing 1× Cell Signaling kinase buffer, 0.5 μM (micromolar) PTK Biotinylated peptide substrate 2, 0.01% BSA, and 100 ng/well (0.06 mU/well) Btk enzyme. Btk enzyme is prepared as follows: full length human wildtype Btk (accession number NM-000061) with a C-terminal V5 and 6×His tag was subcloned into pFastBac® vector (Invitrogen/Life Technologies) for making baculovirus carrying this epitope-tagged Btk. […] Passage 3 virus is used to infect Sf9 cells to overexpress the recombinant Btk protein. The Btk protein is then purified to homogeneity using Ni-NTA column. […] A solution of 200 μM ATP is prepared in water and adjusted to pH 7.4 with 1N NaOH. A quantity of 1.25 μL (microliter) of compounds in 5% DMSO is transferred to a 96-well ½ area Costar polystyrene plate. Compounds are tested singly and with an 11-point dose-responsive curve (starting concentration is 10 μM; 1:2 dilution). A quantity of 18.75 μL of master mix minus enzyme (as a negative control) and master mix plus enzyme is transferred to appropriate wells in 96-well ½ area costar polystyrene plate. 5 μL of 200 μM ATP is added to that mixture in the 96-well ½ area Costar polystyrene plate for final ATP concentration of 40 μM. The reaction is allowed to incubate for 1 hour at room temperature. The reaction is stopped with Perkin Elmer 1× detection buffer containing 30 mM EDTA, 20 nM SA-APC, and 1 nM PT66 Ab. […] IC50 values are subsequently calculated. Alternatively, the Lanthascreen assay can be used to evaluate Btk activity through quantification of its phosphorylated peptide product. The FRET (Fluorescence Resonance Energy Transfer) that occurs between the fluorescein on the peptide product and the terbium on the detection antibody decreases with the addition of inhibitors of Btk that reduce the phosphorylation of the peptide. In a final reaction volume of 25 uL, Btk (h) (0.1 ng/25 ul reaction) is incubated with 50 mM Hepes pH 7.5, 10 mM MgCl2, 2 mM MnCl2, 2 mM DTT, 0.2 mM NaVO4, 0.01% BSA, and 0.4 uM fluorescein poly-GAT. […] After incubation for 60 minutes at room temperature, the reaction is stopped by the addition of a final concentration of 2 nM Tb-PY20 detection antibody in 60 mM EDTA for 30 minutes at room temperature.

Compound: Cn1cc(-c2cc(F)cc(N3CCn4c(cc5c4CC(C)(C)C5)C3=O)c2CO)cc(NC(=O)[C@@H]2C[C@@H]2F)c1=O [Compound 172, (1S,2S)—N-[5-[3-(7,7-dimethyl-4-oxo-1,2,6,8-tetrahydrocyclopenta[3,4]pyrrole[3,5-b]pyrazin-3-yl)-5-fluoro-2-(hydroxymethyl)phenyl]-1-methyl-2-oxo-3-pyridyl]-2-fluoro-cyclopropanecarboxamide]
- IC50 ([1]; Table 2, anti-IgM stimulation): 17 nM
- Ki ([2]; Table 2): 0.8 nM

Compound: Cc1cc(C)n(CC(=O)Nc2cc(-c3ccnc(N4CCn5c(cc6c5CC(C)(C)C6)C4=O)c3CO)cn(C)c2=O)n1 [Compound 108, N-[5-[2-(7,7-dimethyl-4-oxo-1,2,6,8-tetrahydrocyclopenta[3,4]pyrrolo[3,5-b]pyrazin-3-yl)-3-(hydroxymethyl)-4-pyridyl]-1-methyl-2-oxo-3-pyridyl]-2-(3,5-dimethylpyrazol-1-yl)acetamide]
- IC50 ([1]; Table 1, anti-IgM stimulation): 2400 nM
- Ki ([2]; Table 1): 51.6 nM

Compound: Cn1cc(-c2ccnc(N3CCn4c(cc5c4CC(C)(C)C5)C3=O)c2CO)cc(NC(=O)[C@@H]2CC23CC3)c1=O (single isomer, unassigned) [Compound 140]
- IC50 ([1]; Table 2, anti-IgM stimulation): 1400 nM
- Ki ([2]; Table 2): 5.2 nM

Compound: Cn1cc(-c2ccnc(N3CCc4c(sc5c4CC(C)(C)C5)C3=O)c2CO)cc(NC(=O)C2CC2)c1=O [Compound 131, N-[5-[2-(7,7-dimethyl-4-oxo-1,2,6,8-tetrahydrocyclopenta[3,4]thieno[1,3-c]pyridin-3-yl)-3-(hydroxymethyl)-4-pyridyl]-1-methyl-2-oxo-3-pyridyl]cyclopropanecarboxamide]
- IC50 ([1]; Table 2, anti-IgM stimulation): 240 nM
- Ki ([2]; Table 2): 7.06 nM

Compound: CN1CCC2(CC1)C[C@@H]2C(=O)Nc1cc(-c2ccnc(-n3ncc4cc(C(C)(C)C)cc(F)c4c3=O)c2CO)cn(C)c1=O (single isomer, unassigned) [Compound 166]
- IC50 ([1]; Table 2, anti-IgM stimulation): 1600 nM
- Ki ([2]; Table 2): 5.4 nM

Compound: CN(C)C(=O)C1C[C@@H]1C(=O)Nc1cc(-c2ccnc(-n3ncc4cc(C(C)(C)C)cc(F)c4c3=O)c2CO)cn(C)c1=O (single isomer, unassigned) [Compound 171, N2-[5-[2-(6-tert-butyl-8-fluoro-1-oxo-phthalazin-2-yl)-3-(hydroxymethyl)-4-pyridyl]-1-methyl-2-oxo-3-pyridyl]-N1,N1-dimethyl-cyclopropane-1,2-dicarboxamide]
- IC50 ([1]; Table 2, anti-IgM stimulation): > 4800 nM
- Ki ([2]; Table 2): 91.5 nM

Compound: C[C@@H]1C[C@H]1C(=O)Nc1cc(-c2ccnc(N3CCn4c(cc5c4CC(C)(C)C5)C3=O)c2CO)cn(C)c1=O [Compound 138, (1R,2R)—N-[5-[2-(7,7-dimethyl-4-oxo-1,2,6,8-tetrahydrocyclopenta[3,4]pyrrolo[3,5-b]pyrazin-3-yl)-3-(hydroxymethyl)-4-pyridyl]-1-methyl-2-oxo-3-pyridyl]-2-methyl-cyclopropanecarboxamide]
- IC50 ([1]; Table 2, anti-IgM stimulation): 2600 nM
- Ki ([2]; Table 2): 43.8 nM

Compound: Cn1cc(-c2ccnc(N3CCn4c(cc5c4CC(C)(C)C5)C3=O)c2CO)cc(NC(=O)c2ccc(N3CCCC3)nc2)c1=O [Compound 113, N-[5-[2-(7,7-dimethyl-4-oxo-1,2,6,8-tetrahydrocyclopenta[3,4]pyrrolo[3,5-b]pyrazin-3-yl)-3-(hydroxymethyl)-4-pyridyl]-1-methyl-2-oxo-3-pyridyl]-6-pyrrolidin-1-yl-pyridine-3-carboxamide]
- IC50 ([1]; Table 1, anti-IgM stimulation): > 3500 nM
- Ki ([2]; Table 1): 77 nM

Compound: CN(C)C(=O)C1C[C@H]1C(=O)Nc1cc(-c2ccnc(-n3ncc4cc(C(C)(C)C)cc(F)c4c3=O)c2CO)cn(C)c1=O (single isomer, unassigned) [Compound 170, N2-[5-[2-(6-tert-butyl-8-fluoro-1-oxo-phthalazin-2-yl)-3-(hydroxymethyl)-4-pyridyl]-1-methyl-2-oxo-3-pyridyl]-N1,N1-dimethyl-cyclopropane-1,2-dicarboxamide]
- IC50 ([1]; Table 2, anti-IgM stimulation): > 4800 nM
- Ki ([2]; Table 2): 25 nM

Compound: Cn1cc(-c2ccnc(-c3nc4ccc(C(C)(C)C)cc4n3C)c2CO)cc(NC(=O)C2CC2)c1=O [Compound 160, N-[5-[2-(6-tert-butyl-1-methyl-benzimidazol-2-yl)-3-(hydroxymethyl)-4-pyridyl]-1-methyl-2-oxo-3-pyridyl]cyclopropanecarboxamide]
- IC50 ([1]; Table 2, anti-IgM stimulation): > 3500 nM
- Ki ([2]; Table 2): 25.7 nM

Compound: Cn1cc(-c2ccnc(-c3nc4cc(C(C)(C)C)ccc4n3C)c2CO)cc(NC(=O)C2CC2)c1=O [Compound 164, N-[5-[2-(5-tert-butyl-1-methyl-benzimidazol-2-yl)-3-(hydroxymethyl)-4-pyridyl]-1-methyl-2-oxo-3-pyridyl]cyclopropanecarboxamide]
- IC50 ([1]; Table 2, anti-IgM stimulation): > 10600 nM
- Ki ([2]; Table 2): > 500 nM

Compound: CN1CCC2(CC1)C[C@H]2C(=O)Nc1cc(-c2ccnc(-n3ncc4cc(C(C)(C)C)cc(F)c4c3=O)c2CO)cn(C)c1=O (single isomer, unassigned) [Compound 165]
- IC50 ([1]; Table 2, anti-IgM stimulation): > 4800 nM
- Ki ([2]; Table 2): 40.8 nM

Compound: Cn1cc(-c2cc(F)cc(N3CCn4c(cc5c4CC(C)(C)C5)C3=O)c2CO)cc(NC(=O)C2CC2)c1=O [Compound 130, N-[5-[3-(7,7-dimethyl-4-oxo-1,2,6,8-tetrahydrocyclopenta[3,4]pyrrolo[3,5-b]pyrazin-3-yl)-5-fluoro-2-(hydroxymethyl)phenyl]-1-methyl-2-oxo-3-pyridyl]cyclopropanecarboxamide]
- IC50 ([1]; Table 2, anti-IgM stimulation): 35 nM
- Ki ([2]; Table 2): 1.29 nM

Compound: Cn1cc(-c2ccnc(N3CCn4c(cc5c4CC(C)(C)C5)C3=O)c2CO)cc(NC(=O)[C@@H]2CC23CCC3)c1=O (single isomer, unassigned) [Compound 146]
- IC50 ([1]; Table 2, anti-IgM stimulation): 5200 nM
- Ki ([2]; Table 2): 17 nM

Compound: CN1CC[C@@]2(C[C@H]2C(=O)Nc2cc(-c3ccnc(-n4ncc5cc(C(C)(C)C)cc(F)c5c4=O)c3CO)cn(C)c2=O)C1 (single isomer, unassigned) [Compound 175]
- IC50 ([1]; Table 2, anti-IgM stimulation): > 4800 nM
- Ki ([2]; Table 2): 7.6 nM

Compound: CN1CC[C@@]2(C[C@@H]2C(=O)Nc2cc(-c3ccnc(-n4ncc5cc(C(C)(C)C)cc(F)c5c4=O)c3CO)cn(C)c2=O)C1 (single isomer, unassigned) [Compound 174]
- IC50 ([1]; Table 2, anti-IgM stimulation): 1500 nM
- Ki ([2]; Table 2): 7.2 nM

Compound: Cn1cc(-c2ccnc(N3CCc4cc(OC(F)F)cc(F)c4C3=O)c2CO)cc(NC(=O)C2CC2)c1=O [Compound 144, N-[5-[2-[6-(difluoromethoxy)-8-fluoro-1-oxo-3,4-dihydroisoquinolin-2-yl]-3-(hydroxymethyl)-4-pyridyl]-1-methyl-2-oxo-3-pyridyl]cyclopropanecarboxamide]
- IC50 ([1]; Table 2, anti-IgM stimulation): > 5400 nM
- Ki ([2]; Table 2): 234 nM
